# Laboratory results taken from ChEMBL document CHEMBL5154747, “Discovery of new carbonic anhydrase IX inhibitors as anticancer agents by toning the hydrophobic and hydrophilic rims of the active site to encounter the dual-tail approach” (Eur J Med Chem, 2022).
# Columns and labels:
# CCRF-CEM = assay: Anticancer activity against human CCRF-CEM cells assessed as cell growth inhibition incubated for 48 hrs by SRB assay; assay type: functional
# HCT-15 = assay: Anticancer activity against human HCT-15 cells assessed as cell growth inhibition incubated for 48 hrs by SRB assay; assay type: functional
# HCT-116 = assay: Anticancer activity against human HCT-116 cells assessed as cell growth inhibition incubated for 48 hrs by SRB assay; assay type: functional
# EKVX = assay: Anticancer activity against human EKVX cells assessed as cell growth inhibition incubated for 48 hrs by SRB assay; assay type: functional; conditions: read-out: LC50 (the source's name)
# DU-145 = assay: Anticancer activity against human DU-145 cells assessed as cell growth inhibition incubated for 48 hrs by SRB assay; assay type: functional
# IGROV-1 = assay: Anticancer activity against human IGROV-1 cells assessed as cell growth inhibition incubated for 48 hrs by SRB assay; assay type: functional; conditions: read-out: LC50 (the source's name)
# SW-620 = assay: Anticancer activity against human SW-620 cells assessed as cell growth inhibition incubated for 48 hrs by SRB assay; assay type: functional
# RXF 393 [1] = assay: Cytotoxicity against human RXF 393 cells assessed as inhibition of cell viability incubated for 72 hrs under hypoxia condition by MTT assay; assay type: functional, cell-based; conditions: RXF 393, 72 h
# SR = assay: Anticancer activity against human SR cells assessed as cell growth inhibition incubated for 48 hrs by SRB assay; assay type: functional; conditions: read-out: LC50 (the source's name)
# SNB-19 = assay: Anticancer activity against human SNB-19 cells assessed as cell growth inhibition incubated for 48 hrs by SRB assay; assay type: functional; conditions: read-out: LC50 (the source's name)
# HOP-62 = assay: Anticancer activity against human HOP-62 cells assessed as cell growth inhibition incubated for 48 hrs by SRB assay; assay type: functional
# NCI-H522 = assay: Anticancer activity against human NCI-H522 cells assessed as cell growth inhibition incubated for 48 hrs by SRB assay; assay type: functional; conditions: read-out: LC50 (the source's name)
# TK-10 = assay: Anticancer activity against human TK-10 cells assessed as cell growth inhibition incubated for 48 hrs by SRB assay; assay type: functional; conditions: read-out: LC50 (the source's name)
# NCI-H23 = assay: Anticancer activity against human NCI-H23 cells assessed as cell growth inhibition incubated for 48 hrs by SRB assay; assay type: functional
# A498 = assay: Anticancer activity against human A498 cells assessed as cell growth inhibition incubated for 48 hrs by SRB assay; assay type: functional
# RPMI-8226 = assay: Anticancer activity against human RPMI-8226 cells assessed as cell growth inhibition incubated for 48 hrs by SRB assay; assay type: functional
# SF-539 = assay: Anticancer activity against human SF-539 cells assessed as cell growth inhibition incubated for 48 hrs by SRB assay; assay type: functional
# MDA-MB-468 = assay: Anticancer activity against human MDA-MB-468 cells assessed as cell growth inhibition incubated for 48 hrs by SRB assay; assay type: functional; conditions: read-out: LC50 (the source's name)
# HOP-92 = assay: Anticancer activity against human HOP-92 cells assessed as cell growth inhibition incubated for 48 hrs by SRB assay; assay type: functional; conditions: read-out: LC50 (the source's name)
# HT-29 = assay: Anticancer activity against human HT-29 cells assessed as cell growth inhibition incubated for 48 hrs by SRB assay; assay type: functional
# MDA-MB-231 = assay: Anticancer activity against human MDA-MB-231 cells assessed as cell growth inhibition incubated for 48 hrs by SRB assay; assay type: functional
# NCI-H322M = assay: Anticancer activity against human NCI-H322M cells assessed as cell growth inhibition incubated for 48 hrs by SRB assay; assay type: functional; conditions: read-out: LC50 (the source's name)
# SK-MEL-5 [2] = assay: Cytotoxicity against human SK-MEL-5 cells assessed as inhibition of cell viability incubated for 72 hrs under hypoxia condition by MTT assay; assay type: functional, cell-based; conditions: SK-MEL-5, 72 h
# OVCAR-3 = assay: Anticancer activity against human OVCAR-3 cells assessed as cell growth inhibition incubated for 48 hrs by SRB assay; assay type: functional
# 786-0 = assay: Anticancer activity against human 786-0 cells assessed as cell growth inhibition incubated for 48 hrs by SRB assay; assay type: functional
# U-251 = assay: Anticancer activity against human U-251 cells assessed as cell growth inhibition incubated for 48 hrs by SRB assay; assay type: functional
# HL-60(TB) = assay: Anticancer activity against human HL-60(TB) cells assessed as cell growth inhibition incubated for 48 hrs by SRB assay; assay type: functional
# SK-MEL-5 [3] = assay: Anticancer activity against human SK-MEL-5 cells assessed as cell growth inhibition incubated for 48 hrs by SRB assay; assay type: functional
# MDA-MB-435 = assay: Anticancer activity against human MDA-MB-435 cells assessed as cell growth inhibition incubated for 48 hrs by SRB assay; assay type: functional
# PC-3 = assay: Anticancer activity against human PC-3 cells assessed as cell growth inhibition incubated for 48 hrs by SRB assay; assay type: functional; conditions: read-out: LC50 (the source's name)
# MOLT-4 = assay: Anticancer activity against human MOLT-4 cells assessed as cell growth inhibition incubated for 48 hrs by SRB assay; assay type: functional
# SN12C = assay: Anticancer activity against human SN12C cells assessed as cell growth inhibition incubated for 48 hrs by SRB assay; assay type: functional
# UO-31 = assay: Anticancer activity against human UO-31 cells assessed as cell growth inhibition incubated for 48 hrs by SRB assay; assay type: functional; conditions: read-out: LC50 (the source's name)
# NCI-H226 = assay: Anticancer activity against human NCI-H226 cells assessed as cell growth inhibition incubated for 48 hrs by SRB assay; assay type: functional; conditions: read-out: LC50 (the source's name)
# HCC 2998 [4] = assay: Cytotoxicity against human HCC 2998 cells assessed as inhibition of cell viability incubated for 72 hrs under hypoxia condition by MTT assay; assay type: functional, cell-based; conditions: HCC 2998, 72 h
# UACC-62 = assay: Anticancer activity against human UACC-62 cells assessed as cell growth inhibition incubated for 48 hrs by SRB assay; assay type: functional
# NCI-H460 = assay: Anticancer activity against human NCI-H460 cells assessed as cell growth inhibition incubated for 48 hrs by SRB assay; assay type: functional
# BT-549 = assay: Anticancer activity against human BT-549 cells assessed as cell growth inhibition incubated for 48 hrs by SRB assay; assay type: functional; conditions: read-out: LC50 (the source's name)
# SK-MEL-28 = assay: Anticancer activity against human SK-MEL-28 cells assessed as cell growth inhibition incubated for 48 hrs by SRB assay; assay type: functional; conditions: read-out: LC50 (the source's name)
# M14 = assay: Anticancer activity against human M14 cells assessed as cell growth inhibition incubated for 48 hrs by SRB assay; assay type: functional
# ACHN = assay: Anticancer activity against human ACHN cells assessed as cell growth inhibition incubated for 48 hrs by SRB assay; assay type: functional
# HCC 2998 [5] = assay: Anticancer activity against human HCC 2998 cells assessed as cell growth inhibition incubated for 48 hrs by SRB assay; assay type: functional
# SF-295 = assay: Anticancer activity against human SF-295 cells assessed as cell growth inhibition incubated for 48 hrs by SRB assay; assay type: functional; conditions: read-out: LC50 (the source's name)
# OVCAR-5 = assay: Anticancer activity against human OVCAR-5 cells assessed as cell growth inhibition incubated for 48 hrs by SRB assay; assay type: functional; conditions: read-out: LC50 (the source's name)
# CAKI-1 = assay: Anticancer activity against human CAKI-1 cells assessed as cell growth inhibition incubated for 48 hrs by SRB assay; assay type: functional
# NCI/ADR-RES = assay: Anticancer activity against human NCI/ADR-RES cells assessed as cell growth inhibition incubated for 48 hrs by SRB assay; assay type: functional
# Malme-3M = assay: Anticancer activity against human Malme-3M cells assessed as cell growth inhibition incubated for 48 hrs by SRB assay; assay type: functional
# A549 = assay: Anticancer activity against human A549 cells assessed as cell growth inhibition incubated for 48 hrs by SRB assay; assay type: functional
# K562 = assay: Anticancer activity against human K562 cells assessed as cell growth inhibition incubated for 48 hrs by SRB assay; assay type: functional; conditions: read-out: LC50 (the source's name)
# MCF7 = assay: Anticancer activity against human MCF7 cells assessed as cell growth inhibition incubated for 48 hrs by SRB assay; assay type: functional
# COLO 205 = assay: Anticancer activity against human COLO 205 cells assessed as cell growth inhibition incubated for 48 hrs by SRB assay; assay type: functional
# RXF 393 [6] = assay: Anticancer activity against human RXF 393 cells assessed as cell growth inhibition incubated for 48 hrs by SRB assay; assay type: functional; conditions: read-out: LC50 (the source's name)
# KM12 = assay: Anticancer activity against human KM12 cells assessed as cell growth inhibition incubated for 48 hrs by SRB assay; assay type: functional
# SK-MEL-2 = assay: Anticancer activity against human SK-MEL-2 cells assessed as cell growth inhibition incubated for 48 hrs by SRB assay; assay type: functional; conditions: read-out: LC50 (the source's name)
# [7] = read-out: LC50 (the source's name)
smiles,measurement,setting,value
O=c1[nH]cc(F)c(=O)[nH]1 [FLUOROURACIL],GI50,CCRF-CEM,9.97 µM
same,CC50,CCRF-CEM; [7],> 100 µM
same,GI50,HCT-15,110 nM
same,CC50,HCT-15; [7],> 100 µM
same,GI50,HCT-116,220 nM
same,CC50,EKVX,> 100 µM
same,GI50,DU-145,360 nM
same,CC50,IGROV-1,> 100 µM
same,GI50,SW-620,920 nM
same,CC50,SW-620; [7],> 100 µM
same,IC50,RXF 393 [1],28.2 µM
same,CC50,SR,> 100 µM
same,CC50,SNB-19,> 100 µM
same,GI50,HOP-62,390 nM
same,CC50,HOP-62; [7],> 100 µM
same,CC50,NCI-H522,> 100 µM
same,CC50,TK-10,> 100 µM
same,GI50,NCI-H23,330 nM
same,CC50,NCI-H23; [7],> 100 µM
same,GI50,A498,350 nM
same,CC50,A498; [7],> 100 µM
same,GI50,RPMI-8226,40 nM
same,GI50,SF-539,60 nM
same,CC50,SF-539; [7],> 100 µM
same,CC50,MDA-MB-468,> 100 µM
same,CC50,HOP-92,> 100 µM
same,GI50,HT-29,170 nM
same,CC50,HT-29; [7],> 100 µM
same,GI50,MDA-MB-231,6.6 µM
same,CC50,NCI-H322M,> 100 µM
same,IC50,SK-MEL-5 [2],15.3 µM
same,GI50,OVCAR-3,10 nM
same,GI50,786-0,720 nM
same,CC50,786-0; [7],> 100 µM
same,GI50,U-251,920 nM
same,CC50,U-251; [7],> 100 µM
same,GI50,HL-60(TB),2300 nM
same,CC50,HL-60(TB); [7],> 100 µM
same,GI50,SK-MEL-5 [3],460 nM
same,GI50,MDA-MB-435,70 nM
same,CC50,PC-3,> 100 µM
same,GI50,MOLT-4,350 nM
same,CC50,MOLT-4; [7],> 100 µM
same,GI50,SN12C,490 nM
same,CC50,UO-31,> 100 µM
same,CC50,NCI-H226,> 100 µM
same,IC50,HCC 2998 [4],12.6 µM
same,GI50,UACC-62,520 nM
same,GI50,NCI-H460,50 nM
same,CC50,NCI-H460; [7],> 100 µM
same,CC50,BT-549,> 100 µM
same,CC50,SK-MEL-28,> 100 µM
same,GI50,M14,980 nM
same,CC50,M14; [7],> 100 µM
same,GI50,ACHN,270 nM
same,CC50,ACHN; [7],> 100 µM
same,GI50,HCC 2998 [5],50 nM
same,CC50,HCC 2998 [5]; [7],> 100 µM
same,CC50,SF-295,> 100 µM
same,CC50,OVCAR-5,> 100 µM
same,GI50,CAKI-1,70 nM
same,CC50,CAKI-1; [7],> 100 µM
same,GI50,NCI/ADR-RES,310 nM
same,CC50,NCI/ADR-RES; [7],> 100 µM
same,GI50,Malme-3M,50 nM
same,CC50,Malme-3M; [7],> 100 µM
same,GI50,A549,180 nM
same,CC50,K562,> 100 µM
same,GI50,MCF7,70 nM
same,GI50,COLO 205,150 nM
same,CC50,COLO 205; [7],> 100 µM
same,CC50,RXF 393 [6],> 100 µM
same,GI50,KM12,210 nM
same,CC50,KM12; [7],> 100 µM
same,CC50,SK-MEL-2,> 100 µM
